The values below come from paper PMC11052718, “PMF-seq: a highly scalable screening strategy for linking genetics to mitochondrial bioenergetics” (Nature Metabolism, 2024).

Experiment [1] addresses T1, human LDHD (Homo sapiens, UniProt Q86WU2).
T1 construct: ~50 kDa predicted, dimer by gel filtration
T1 sequence (Q86WU2 53-484 isoform Q86WU2-2): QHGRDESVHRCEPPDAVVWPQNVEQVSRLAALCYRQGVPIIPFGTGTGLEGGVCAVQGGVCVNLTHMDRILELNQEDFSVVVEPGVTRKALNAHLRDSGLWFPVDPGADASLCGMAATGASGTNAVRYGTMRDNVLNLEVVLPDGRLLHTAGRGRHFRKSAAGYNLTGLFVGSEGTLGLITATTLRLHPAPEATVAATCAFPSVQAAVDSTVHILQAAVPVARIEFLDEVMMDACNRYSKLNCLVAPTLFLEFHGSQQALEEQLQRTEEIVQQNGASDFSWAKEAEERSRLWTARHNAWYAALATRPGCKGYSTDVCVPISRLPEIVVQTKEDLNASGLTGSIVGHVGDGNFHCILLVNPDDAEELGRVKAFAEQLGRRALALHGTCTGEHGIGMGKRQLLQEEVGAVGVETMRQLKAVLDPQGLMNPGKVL
Nature of the experiment: cytochrome c reduction, absorbance at […] nm. In kind it is biochemical. To be noted: 200 µM bovine heart cytochrome c as electron acceptor, 50 mM potassium phosphate pH 8.5; 10 mM substrate.

In experiment [2] the target is T1, human LDHD. Nature of the experiment: cytochrome c reduction, absorbance at […] nm. The class given is biochemical. To be noted: 200 µM bovine heart cytochrome c as electron acceptor, 50 mM potassium phosphate pH 8.5.
In experiment [3] the target is human D-lactate dehydrogenase (LDHD) isoform 2 (Komagataella phaffii | human). Description: SEC; Superdex 200 10/300 GL, after elution from Talon cobalt resin; running buffer not stated. On the technique in general: Size exclusion chromatography separates by hydrodynamic size, large species first.

What is called Km is the concentration of substrate that gives half-maximal velocity. Usually stoichiometry N stands for the number of molecules, sites or subunits per partner or assembly.

For the molecule `CC[C@@H](O)C(=O)O` [D-2-hydroxybutyrate], the “relative initial rate at 10 mM” value on human LDHD [1] is “we identified D-2-hydroxybutyrate as another LDHD substrate that can be used to reduce cytochrome c”.

`C[C@@H](O)C(=O)O` [D-lactate]: the Km on human LDHD [2] was found to be 112 µM. For the molecule “human D-lactate dehydrogenase (LDHD) isoform 2 (enzyme)”, in experiment [3], the stoichiometry N came to 2.
